Measurements reported in patent US4346076A, “Bis-tetrazoylmethyl substituted cephalosporin antibiotics” (Eli Lilly and Company, priority 1980, dated 1982).
In brackets after ≈: the same amount, converted by molar mass. Like-named read-outs stand apart in the source and are kept apart here.

How the values were obtained:
[1] = test system: ampicillin-resistant Haemophilus influenzae; assay: treatment of ampicillin-resistant Haemophilus influenzae meningitis in infant rats; assay type: in vivo
Escherichia coli (EC14) = assay: in vivo activity in infected mice; conditions: sc, doses at 1 and 5 hours post infection
Method: (§1) Compound E (TABLE 2), a preferred compound of the invention, was administered to mice infected with various pathogens to determine the compound's effective dose (ED50). Listed below in TABLE 3 are the ED50 values determined with the indicated infectious organism. | ^1 Subcutaneous doses at 1 and 5 hours post infection

Proteus vulgaris (PV2S) = assay: in vivo activity in infected mice; conditions: sc, doses at 1 and 5 hours post infection
Method: as §1

[2] = test system: Serratia marcescens (SE3); assay: in vivo activity in infected mice; conditions: sc, doses at 1 and 5 hours post infection
Method: as §1

[3] = test system: Streptococcus pyogenes (C203); assay: in vivo activity in infected mice; conditions: sc, doses at 1 and 5 hours post infection
Method: as §1

[4] = test system: Staphylococcus aureus (3055); assay: in vivo activity in infected mice; conditions: sc, doses at 1 and 5 hours post infection
Method: as §1

Enterobacter cloacae = assay: in vitro antibacterial activity, agar dilution; assay type: cell-based
Source text: (§2) The bis-tetrazol-thiomethyl substituted cephalosporins of this invention are broad spectrum antibiotics which inhibit the growth of both gram positive and gram negative microorganisms which are pathogenic to man and animals. […] The following Table 2 lists the minimum inhibitory concentrations of representative compounds of the invention.
(§3) The data in TABLE 2 were obtained in the agar dilution test method using Mueller-Hinton agar containing two percent Supplement C (Difco). Serial two-fold dilutions were run with the highest concentration on test at 128 mcg/ml.

Streptococcus pneumoniae = assay: in vitro antibacterial activity, agar dilution; assay type: cell-based; conditions: strain PARK, read-out: Minimum Inhibitory Concentration
Source text: as §2, §3

Proteus inconstans = assay: in vitro antibacterial activity, agar dilution; assay type: cell-based; conditions: Providencia alcalifaciens, read-out: Minimum Inhibitory Concentration
Source text: as §2, §3

Citrobacter freundii = assay: in vitro antibacterial activity, agar dilution; assay type: cell-based; conditions: strain CF17, read-out: Minimum Inhibitory Concentration
Source text: as §2, §3

Escherichia coli = assay: in vitro antibacterial activity, agar dilution; assay type: cell-based
Source text: as §2, §3

[5] = test system: Bordetella bronchoseptica; assay: in vitro antibacterial activity, agar dilution; assay type: cell-based; conditions: strain 16, read-out: Minimum Inhibitory Concentration
Source text: as §2, §3

[6] = test system: Staphylococcus epidermidis; assay: in vitro antibacterial activity, agar dilution; assay type: cell-based
Source text: as §2, §3

Streptococcus Group A = assay: in vitro antibacterial activity, agar dilution; assay type: cell-based; conditions: strain C203; read-out: Minimum Inhibitory Concentration
Source text: as §2, §3

Proteus rettgeri = assay: in vitro antibacterial activity, agar dilution; assay type: cell-based
Source text: as §2, §3

Salmonella sp. = assay: in vitro antibacterial activity, agar dilution; assay type: cell-based
Source text: as §2, §3

Enterobacter aerogenes = assay: in vitro antibacterial activity, agar dilution; assay type: cell-based; conditions: Klebsiella aerogenes, read-out: Minimum Inhibitory Concentration
Source text: as §2, §3

Proteus morganii = assay: in vitro antibacterial activity, agar dilution; assay type: cell-based; conditions: Morganella morganii; strain PR15; read-out: Minimum Inhibitory Concentration
Source text: as §2, §3

Klebsiella sp. = assay: in vitro antibacterial activity, agar dilution; assay type: cell-based
Source text: as §2, §3

Serratia marcescens = assay: in vitro antibacterial activity, agar dilution; assay type: cell-based
Source text: as §2, §3

Streptococcus Group D = assay: in vitro antibacterial activity, agar dilution; assay type: cell-based; conditions: read-out: Minimum Inhibitory Concentration
Source text: as §2, §3

Shigella sonnei = assay: in vitro antibacterial activity, agar dilution; assay type: cell-based; conditions: strain N9, read-out: Minimum Inhibitory Concentration
Source text: as §2, §3

Pseudomonas aeruginosa = assay: in vitro antibacterial activity, agar dilution; assay type: cell-based
Source text: as §2, §3

Haemophilus influenzae = assay: in vitro antibacterial activity, agar dilution; assay type: cell-based
Source text: as §2, §3

Staphylococcus aureus = assay: in vitro antibacterial activity, agar dilution; assay type: cell-based
Source text: as §2, §3

[7] = levels in cerebro-spinal fluid of rats; assay type: in vivo; conditions: 20 mg/kg s.c.
[8] = read-out: Minimum Inhibitory Concentration

CO/N=C(\C(=O)N[C@@H]1C(=O)N2C(C(=O)O)=C(CSc3nnnn3Cc3nnn[nH]3)CS[C@H]12)c1csc(N)n1 [Compound E, syn 7β-[α-methoximino-α-(2-amino-1,3-thiazol-4-yl)-acetamido]-3-[1-(1H-tetrazol-5-ylmethyl)-1H-tetrazol-5-ylthiomethyl]-3-cephem-4-carboxylic acid]
effectiveness in treatment of meningitis [1]: effective in the treatment | ED50 (Escherichia coli (EC14)): 0.16 mg/kg | ED50 (Proteus vulgaris (PV2S)): 0.12 mg/kg | ED50 [2]: 1 mg/kg | ED50 [3]: 0.21 mg/kg | ED50 [4]: 7.6 mg/kg | MIC (Enterobacter cloacae; strain 265A, read-out: Minimum Inhibitory Concentration): 64 µg/mL (≈ 110 µM) | MIC (Enterobacter cloacae; strain EB5, read-out: Minimum Inhibitory Concentration): 2 µg/mL (≈ 3.45 µM) | MIC (Streptococcus pneumoniae): 0.03 µg/mL (≈ 0.0518 µM) | MIC (Proteus inconstans): 0.125 µg/mL (≈ 0.216 µM) | MIC (Citrobacter freundii): 32 µg/mL (≈ 55.2 µM) | MIC (Escherichia coli; [8]): 0.125 µg/mL (≈ 0.216 µM) | MIC (Escherichia coli; strain EC14, read-out: Minimum Inhibitory Concentration): 0.06 µg/mL (≈ 0.104 µM) | MIC (Escherichia coli; strain N10, read-out: Minimum Inhibitory Concentration): 0.25 µg/mL (≈ 0.431 µM) | MIC [5]: 32 µg/mL (≈ 55.2 µM) | MIC ([6]; strain EPI1, read-out: Minimum Inhibitory Concentration): 16 µg/mL (≈ 27.6 µM) | MIC ([6]; strain EPI2, read-out: Minimum Inhibitory Concentration): 64 µg/mL (≈ 110 µM) | MIC (Streptococcus Group A): 0.06 µg/mL (≈ 0.104 µM) | MIC (Proteus rettgeri; Providencia rettgeri, read-out: Minimum Inhibitory Concentration): 0.125 µg/mL (≈ 0.216 µM) | Minimum Inhibitory Concentration (Proteus rettgeri; strain C24): .125 µg/mL | MIC (Salmonella sp.; strain 1335, read-out: Minimum Inhibitory Concentration): 0.25 µg/mL (≈ 0.431 µM) | MIC (Salmonella sp.; strain X514, read-out: Minimum Inhibitory Concentration): 0.125 µg/mL (≈ 0.216 µM) | MIC (Enterobacter aerogenes; strain C32): 0.25 µg/mL (≈ 0.431 µM) | MIC (Enterobacter aerogenes; strain EB17): 0.25 µg/mL (≈ 0.431 µM) | MIC (Enterobacter aerogenes; strain X68): 0.06 µg/mL (≈ 0.104 µM) | MIC (Proteus morganii): 0.06 µg/mL (≈ 0.104 µM) | MIC (Klebsiella sp.; strain KAE, read-out: Minimum Inhibitory Concentration): 16 µg/mL (≈ 27.6 µM) | MIC (Klebsiella sp.; strain X26, read-out: Minimum Inhibitory Concentration): 0.06 µg/mL (≈ 0.104 µM) | MIC (Serratia marcescens; strain SE3, read-out: Minimum Inhibitory Concentration): 1 µg/mL (≈ 1.73 µM) | MIC (Serratia marcescens; strain X93, read-out: Minimum Inhibitory Concentration): 0.25 µg/mL (≈ 0.431 µM) | MIC (Streptococcus Group D; strain 9960): 16 µg/mL (≈ 27.6 µM) | MIC (Streptococcus Group D; strain X66): > 128 µg/mL | MIC (Shigella sonnei): 0.125 µg/mL (≈ 0.216 µM) | MIC (Pseudomonas aeruginosa; strain Ps18, read-out: Minimum Inhibitory Concentration): 8 µg/mL (≈ 13.8 µM) | MIC (Pseudomonas aeruginosa; strain X239, read-out: Minimum Inhibitory Concentration): 16 µg/mL (≈ 27.6 µM) | MIC (Pseudomonas aeruginosa; strain X528, read-out: Minimum Inhibitory Concentration): 8 µg/mL (≈ 13.8 µM) | MIC (Haemophilus influenzae; Haemophilus influenzae, read-out: Minimum Inhibitory Concentration): 0.125 µg/mL (≈ 0.216 µM) | Minimum Inhibitory Concentration (Haemophilus influenzae; strain 251, resistant strain): .125 µg/mL | MIC (Staphylococcus aureus; [8]): 16 µg/mL (≈ 27.6 µM) | MIC (Staphylococcus aureus; strain V41, read-out: Minimum Inhibitory Concentration): 8 µg/mL (≈ 13.8 µM) | MIC (Staphylococcus aureus; strain X1.1, read-out: Minimum Inhibitory Concentration): 4 µg/mL (≈ 6.9 µM) | MIC (Staphylococcus aureus; strain X400, read-out: Minimum Inhibitory Concentration): > 128 µg/mL | levels in the cerebro-spinal fluid [7]: present in effective levels
